Each structure is given as a SMILES string.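 Cells were grown in 96-well plates and exposed to each compound for 48 hours at five concentrations; endpoints were interpolated linearly between bracketing concentrations, or set to the highest concentration if not reached. Here, GI50 denotes the concentration required for 50% inhibition of growth. The concentration for full growth arrest is given as TGI.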

The text below walks through data of PubChem BioAssay (NCI).

Among the test systems are SF-539 CNS; SNB-75 CNS; RXF 393 renal; BT-549 breast; SR leukemia; NCI-H226 lung; MOLT-4 leukemia; MALME-3M melanoma; 786-0 renal; SK-MEL-2 melanoma.
Common to all, as to test: growth of human tumour cells (NCI), 48 h

As for `O=C(Nc1ccc(Cl)cc1F)c1cc(F)ccc1O`, the GI50 in the experiment on SF-539 CNS is 0.845 µM; with SNB-75 CNS, 0.39 µM; with RXF 393 renal, 0.864 µM; in the experiment on BT-549 breast, 0.83 µM; with SR leukemia, 0.752 µM; with NCI-H226 lung it was 1.02 µM. Moreover, the GI50 with MOLT-4 leukemia was 1.9 µM; with MALME-3M melanoma it was 0.41 µM; in the experiment with 786-0 renal it was 2.73 µM; in the experiment on SK-MEL-2 melanoma, 0.519 µM. Moreover, the TGI is 7.58 µM with SF-539 CNS; 6.16 µM in the experiment on SNB-75 CNS; 4.28 µM in the experiment with RXF 393 renal; 4.02 µM in the experiment on BT-549 breast; over 100 µM in the experiment on SR leukemia; 5.49 µM with NCI-H226 lung. The TGI in the experiment on MOLT-4 leukemia is 4.77 µM; in the experiment with MALME-3M melanoma, 2.27 µM; in the experiment with 786-0 renal it was 9.73 µM; in the experiment on SK-MEL-2 melanoma, 3.12 µM.
For `Nc1c(S(=O)(=O)O)cc(Nc2cccc(S(N)(=O)=O)c2)c2c1C(=O)c1ccccc1C2=O`, the TGI with SF-539 CNS is over 100 µM; with SNB-75 CNS, 69 µM; in the experiment with RXF 393 renal, over 100 µM; with BT-549 breast it was over 100 µM; in the experiment with SR leukemia, over 100 µM; in the experiment on NCI-H226 lung, over 100 µM. The TGI is over 100 µM in the experiment with MOLT-4 leukemia, 87.9 µM with MALME-3M melanoma, over 100 µM with 786-0 renal and over 100 µM with SK-MEL-2 melanoma.
In the case of `COc1cc(/C=C2\CCCC3C2=Nc2ccccc2NC3c2cc(OC)c(OC)c(OC)c2)cc(OC)c1OC` (stereo unspecified), the GI50 in the experiment with SF-539 CNS was 3.9 µM; in the experiment with SNB-75 CNS it was 21.9 µM; in the experiment with RXF 393 renal, 2.08 µM; in the experiment with BT-549 breast, 1.58 µM; in the experiment on SR leukemia it was 0.723 µM; in the experiment with NCI-H226 lung, 1.93 µM. In addition, the GI50 with MOLT-4 leukemia is 2.31 µM; in the experiment with MALME-3M melanoma it was 1.56 µM; with 786-0 renal, 2.55 µM; in the experiment on SK-MEL-2 melanoma, 3.1 µM. The TGI was over 100 µM in the experiment with SF-539 CNS; over 100 µM in the experiment with SNB-75 CNS; 5.31 µM with RXF 393 renal; 5.5 µM with BT-549 breast; 3.14 µM in the experiment on SR leukemia; 4.19 µM in the experiment with NCI-H226 lung. Moreover, the TGI in the experiment with MOLT-4 leukemia was 5.4 µM; in the experiment with MALME-3M melanoma it was 6.56 µM; in the experiment with 786-0 renal, 8 µM; in the experiment on SK-MEL-2 melanoma it was 8.33 µM.
Turning to `[C-]#[O+].[C-]#[O+].[Ir].[O-]c1ccc2ccccc2c1N=Nc1ccccc1`, the TGI with SF-539 CNS is 50.4 µM; in the experiment with SNB-75 CNS, 59.6 µM; in the experiment with RXF 393 renal, 6.78 µM; in the experiment with BT-549 breast, 40.1 µM; in the experiment on SR leukemia it was over 56.4 µM; in the experiment with NCI-H226 lung, 31.9 µM. Moreover, the TGI came to 50.2 µM in the experiment on MOLT-4 leukemia, 13 µM in the experiment on MALME-3M melanoma, 12.2 µM with 786-0 renal and 49.1 µM in the experiment on SK-MEL-2 melanoma. Besides, the GI50 in the experiment with 786-0 renal is 3.39 µM.
On to `c1ccc(CCCNc2nnnc3ccccc23)cc1`, for which the TGI with SF-539 CNS, with SNB-75 CNS, with RXF 393 renal, with BT-549 breast, in the experiment with SR leukemia and in the experiment on NCI-H226 lung was over 100 µM in each case. Further, the TGI in the experiment with MOLT-4 leukemia, in the experiment on MALME-3M melanoma, in the experiment with 786-0 renal and with SK-MEL-2 melanoma was over 100 µM in each case.
Consider `Clc1nc(Cl)c2ncn(C/C=C/Cn3cnc4c(Cl)nc(Cl)nc43)c2n1`, for which the GI50 with SF-539 CNS is 21.3 µM; in the experiment on SNB-75 CNS, 19.1 µM; in the experiment on RXF 393 renal, 2.3 µM; in the experiment with BT-549 breast, 16.7 µM; with SR leukemia, 14.9 µM; in the experiment with NCI-H226 lung, 22.3 µM. Besides, the GI50 with MOLT-4 leukemia was 17 µM; in the experiment with MALME-3M melanoma, 31.2 µM; in the experiment with 786-0 renal, 23.4 µM; in the experiment on SK-MEL-2 melanoma, 14.2 µM. In addition, the TGI in the experiment with SF-539 CNS is 41 µM; in the experiment with SNB-75 CNS, 44 µM; in the experiment with RXF 393 renal it was 6.42 µM; with BT-549 breast, 31.3 µM; in the experiment on SR leukemia, 32.2 µM; in the experiment with NCI-H226 lung, 42.9 µM. For the same compound, the TGI in the experiment on MOLT-4 leukemia was 37.4 µM; in the experiment with MALME-3M melanoma, 52.5 µM; with 786-0 renal, 48.5 µM; with SK-MEL-2 melanoma, 29.3 µM.
`O=C(C[C@@]1(O)C(=O)Nc2c(Cl)ccc(Cl)c21)c1ccc(C2CC2)cc1`: the GI50 in the experiment on SF-539 CNS is 0.286 µM; in the experiment with SNB-75 CNS, 0.143 µM; in the experiment with RXF 393 renal, 0.257 µM; with BT-549 breast, 0.445 µM; with SR leukemia it was 0.0527 µM; in the experiment on NCI-H226 lung, 1.54 µM. Moreover, the GI50 in the experiment with MOLT-4 leukemia is 0.505 µM; in the experiment with MALME-3M melanoma, 0.542 µM; in the experiment on 786-0 renal, 1.39 µM; in the experiment on SK-MEL-2 melanoma, 0.515 µM. Also, the TGI was determined as 3.64 µM in the experiment on SF-539 CNS; 0.588 µM in the experiment with SNB-75 CNS; 4.03 µM in the experiment on RXF 393 renal; 11.7 µM in the experiment on BT-549 breast; 15.4 µM in the experiment with SR leukemia; 19.7 µM in the experiment on NCI-H226 lung. In addition, the TGI in the experiment with MOLT-4 leukemia was 14.6 µM; in the experiment on MALME-3M melanoma, 23.9 µM; in the experiment on 786-0 renal, 20 µM; in the experiment on SK-MEL-2 melanoma it was 18 µM.
For `Cc1cc(Nc2cc(CN3CCOCC3)c3nc(C)c(Cc4ccc(Cl)cc4F)n3n2)n[nH]1`, the GI50 with SF-539 CNS is 1.36 µM; with SNB-75 CNS it was 0.433 µM; with RXF 393 renal, 0.545 µM; in the experiment with BT-549 breast, 1.73 µM; with SR leukemia it was 0.282 µM; in the experiment with NCI-H226 lung, 0.561 µM. Also, the GI50 is 1.59 µM with MOLT-4 leukemia, 4.35 µM in the experiment on MALME-3M melanoma, 1.67 µM in the experiment with 786-0 renal and 2.37 µM with SK-MEL-2 melanoma. In addition, the TGI in the experiment on SF-539 CNS came to 3.26 µM; in the experiment on SNB-75 CNS, 2.4 µM; in the experiment on RXF 393 renal, 2.13 µM; in the experiment with BT-549 breast it was 8.92 µM; with SR leukemia, 1.53 µM; in the experiment with NCI-H226 lung, 4.07 µM. Also, the TGI with MOLT-4 leukemia was determined as 6.71 µM; in the experiment with MALME-3M melanoma it was 20.6 µM; with 786-0 renal, 6.18 µM; in the experiment with SK-MEL-2 melanoma, 7.64 µM.
